Data taken from EP4567031A1, “HPK1 INHIBITOR, PREPARATION METHOD THEREFOR, AND USE THEREOF” (Beijing Earthwise Technology Co., Ltd., priority 2022, dated 2024).
Read-outs that look alike come from different tables or passages of the source.

What was measured:
Phospho-SLP-76 (Ser376) = Phospho-SLP-76 (Ser376) HTRF assay in Jurkat E6-1 cells; format: cell-based; conditions: Homo sapiens, compound 4 hours, then anti-CD3 antibody 20 minutes, read-out: pSLP76, IC50
Procedure: A compound was dissolved in DMSO to 10 mM, and then diluted three-fold with DMSO to 10 dosages in a 96-well plate. Then, 3 µL of the diluted compound sample was transferred to a 96-well plate with 97 µL of cell culture medium, and the plate was shaken for 5 minutes. According to the experimental design diagram, 7.5 µL of the diluted compound sample was transferred to a cell plate. Final concentrations of the compound in this assay were 10000.00, 3333.33, 1111.11, 370.37, 123.46, 41.15, 13.72, 4.57, 1.52 and 0.51 nM.
In this assay, the density of Jurkat E6-1 cells was maintained between 3*10^5 to 3*10^6 cells/mL. The cell culture was replaced with fresh culture medium every 2 to 3 days (depending on the cell density).
30 µL of Jurkat E6-1 (300,000 cells) was added to a 96-well plate and incubated in a 37 °C incubator for 1 hour. Then, according to the experimental design diagram, compounds (6×, 7.5 µL) were added to treat the cells for 4 hours, respectively. After 4 hours, purified anti-human anti-CD3 antibodies (6×, 7.5 µL) were added to treat the cells for 20 minutes. After 20 minutes, 15 µL of cell lysis buffer (4×) was added, and the cells were lysed at 25 °C with shaking (250 rpm) for 1 hour. Then, according to the experimental design diagram, 16 µL of cell lysate was transferred to a 384-well plate using a pipette. After the transfer, 4 µL of antibody detection mixture was added. After being placed at room temperature overnight, the plate was read by EnVision multi-function microplate reader to read the FRET signal (the ratio of HTRF 665/615 was calculated from the readings at 665 nm and 615 nm).
The ratio of the signal at 665 nm to the signal at 615 nm was converted to the percentage of inhibition. Inhibition % = (maximum value - sample value) / (maximum value - minimum value)×100. The minimum value refers to the signal value of a well without anti-CD3 antibody stimulation during the treatment of cells, and the maximum value refers to the signal value of a well with anti-CD3 antibody stimulation but without the compound during the treatment of cells. IC50 values were calculated by XLFit (version 5.3.1.3) in excel. Equation: Y = Bottom + (Top-Bottom) / (1 + (IC50/X) ^ HillSlope). Table 4. Results of cellular activity of the compounds

human Pan T cells = assay: Human Pan T cell IL-2 ELISA; format: cell-based; conditions: Homo sapiens, T-cell, 48 h, Anti-CD3 and Anti-CD28, supernatant IL-2 ELISA, read-out: IL-2 release, EC50
Outline: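 Human Pan T cells (1×10^6 cells/ml) stimulated with plate-bound anti-CD3 plus anti-CD28 and treated 48 h with compound at 9 final concentrations, 39.063–10000 nM. Supernatant IL-2 by ELISA, expressed as fold over DMSO wells; EC50 from four-parameter logistic fit.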

HPK1 = HPK1 (Homo sapiens, UniProt Q92918); assay: HPK1 HTRF kinase assay; format: biochemical; conditions: 1000 µM ATP, 50 nM HPK1, STK1 substrate
Procedure: The reaction was initiated by adding 50 nM HPK1. After 120 minutes of reaction, the assay was terminated by adding 10 µL of Detection Mix.
The ratio of the signal at 665 nm to the signal at 615 nm was converted to the percentage of inhibition. Inhibition % = (maximum value - sample value) / (maximum value - minimum value)×100. The minimum value refers to the value measured in a well without enzyme but with DMSO and substrate, and the maximum value refers to the value measured in a well with DMSO, enzyme and substrate. IC50 values were calculated by XLFit (version 5.3.1.3) in Excel. Equation: Y = Bottom + (Top - Bottom) / (1 + (IC50/X) ^ HillSlope).

HPK1, sequence (Q92918 whole entry, species assumed): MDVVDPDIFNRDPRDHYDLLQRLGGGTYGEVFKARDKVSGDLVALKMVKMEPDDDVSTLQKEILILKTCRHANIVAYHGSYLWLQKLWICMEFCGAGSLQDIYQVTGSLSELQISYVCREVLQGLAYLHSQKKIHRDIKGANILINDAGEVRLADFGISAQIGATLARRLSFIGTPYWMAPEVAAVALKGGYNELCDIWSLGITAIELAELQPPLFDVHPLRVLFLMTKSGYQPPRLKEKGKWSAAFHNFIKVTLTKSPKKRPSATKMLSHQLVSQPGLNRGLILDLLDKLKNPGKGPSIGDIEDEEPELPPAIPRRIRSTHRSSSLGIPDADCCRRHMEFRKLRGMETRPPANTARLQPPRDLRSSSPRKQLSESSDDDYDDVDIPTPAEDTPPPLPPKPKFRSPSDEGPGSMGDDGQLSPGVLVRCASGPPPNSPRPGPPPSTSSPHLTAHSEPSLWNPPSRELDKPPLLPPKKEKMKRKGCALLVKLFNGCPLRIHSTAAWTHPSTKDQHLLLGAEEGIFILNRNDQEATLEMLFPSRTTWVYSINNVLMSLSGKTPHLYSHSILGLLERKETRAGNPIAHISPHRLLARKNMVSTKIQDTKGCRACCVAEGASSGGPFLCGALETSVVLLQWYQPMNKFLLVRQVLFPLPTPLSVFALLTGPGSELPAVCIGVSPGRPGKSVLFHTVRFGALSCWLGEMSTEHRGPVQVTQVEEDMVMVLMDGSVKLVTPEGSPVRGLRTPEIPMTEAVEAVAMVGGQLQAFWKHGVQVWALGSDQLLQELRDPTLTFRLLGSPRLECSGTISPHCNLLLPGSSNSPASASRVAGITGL

Row | Structure (SMILES) | IC50 (Phospho-SLP-76 (Ser376)) | EC50 (human Pan T cells) | IC50 (HPK1; read-out: HPK1, IC50) | IC50 (HPK1; HPK1, IC50 (nM))
1 | COc1cccc2c(-c3cc4c(c5c3CNC5=O)Nc3ccc(N5CCOCC5)cc3C4(C)C)cnn12 [Example 18] | 66 nM | 11.8 nM | 11.7 nM | 
2 | Cc1ccn2c(-c3cc4c(c5c3CNC5=O)Nc3ccc(N5CCOCC5)cc3C4(C)C)cnc2c1F [Example 11] | 73.3 nM | 13.8 nM | 7.38 nM | 
3 | Cc1ccn2c(-c3cc4c(c5c3CNC5=O)Nc3ccc(N5CCOC(C(C)(C)O)C5)cc3C4(C)C)cnc2c1F (stereo not shown) [Example 9] | 57.8 nM | 3.09 nM | 20.4 nM | 
4 | COc1cccc2c(-c3nc4c(c5c3CCNC5=O)Nc3ccc(N5CCOCC5)cc3C4(C)C)cnn12 [Example 15] | 72.2 nM | 3.95 nM |  | 
5 | COc1cccn2c(-c3cc4c(c5c3CNC5=O)Nc3cnc(N5CCOCC5)cc3C4(C)C)cnc12 [Example 14] | 197 nM | 49.1 nM | 30.3 nM | 
6 | COc1cccn2c(-c3cc4c(c5c3CNC5=O)Nc3ccc(N5CCOCC5)nc3C4(C)C)cnc12 [Example 20] | 83.6 nM | 11.3 nM | 5.76 nM | 
7 | Cc1ccn2c(-c3cc4c(c5c(=O)[nH]ccc35)Nc3ccc(N5CCOC(C(C)(C)O)C5)cc3C4(C)C)cnc2c1F (stereo not shown) [Example 6] | 164 nM | 13 nM |  | 
8 | CC1(C)c2cc(N3CCOCC3)ccc2Nc2c1cc(-c1cnc3cccnn13)c1c2C(=O)NC1 [Example 12] | 25.9 nM | 6.67 nM | 6.99 nM | 
9 | CC1(C)c2cc(N3CCOCC3)ccc2Nc2c1cc(-c1cnn3c(C#N)cccc13)c1c2C(=O)NC1 [Example 17] | 56.9 nM | 3.72 nM | 6.31 nM | 
10 | Cn1ccn2c(-c3cc4c(c5c3CNC5=O)Nc3ccc(N5CCOCC5)cc3C4(C)C)cnc2c1=O [Example 41] | 13.5 nM | 6.09 nM |  | 
11 | CC1(C)c2cc(N3CCOCC3)ccc2Nc2c1cc(-c1nnc3n1CCCC3)c1c2C(=O)NC1 [Example 71] |  | 68.6 nM | 11 nM | 
12 | CC1(C)c2cc(N3CCOCC3)ccc2Nc2c1cc(-c1cnn3cccnc13)c1c2C(=O)NC1 [Example 16] | 31.6 nM | 6.81 nM | 2.85 nM | 
13 | CC1(C)c2cc(N3CCOCC3)ccc2Nc2c1cc(-c1cnn3c1OCCC3)c1c2C(=O)NC1 [Example 77] |  | 13.6 nM | 4.56 nM | 
14 | CNc1cncc(-c2cc3c(c4c2CNC4=O)Nc2ccc(N4CCOCC4)cc2C3(C)C)c1 [Example 82] |  | 27 nM | 6.62 nM | 
15 | COc1ccnn2c(-c3cc4c(c5c3CNC5=O)Nc3ccc(N5CCOCC5)cc3C4(C)C)cnc12 [Example 31] | 58.8 nM | 3.7 nM | 24.8 nM | 
16 | CC1(C)c2cc(N3CCOCC3)ccc2Nc2c1cc(-c1cnc3c(F)cccn13)c1c2C(=O)NC1 [Example 64] |  | 3.51 nM | 5.28 nM | 
17 | CC1(C)c2cc(N3CCOCC3)ccc2Nc2c1cc(-c1cnn3c1CCCC3)c1c2C(=O)NC1 [Example 36] |  | 6.33 nM | 11.8 nM | 
18 | Cc1ccn2c(-c3cc4c(c5c3CNC5=O)Nc3ccc(N5CCC(O)CC5)cc3C4(C)C)cnc2c1F [Example 40] |  | 5.07 nM | 12.3 nM | 
19 | Cc1ccn2c(-c3cc4c(c5c3CNC5=O)Nc3ccc(N5CCOC(CO)C5)cc3C4(C)C)cnc2c1F (stereo not shown) [Example 46] |  | 7.73 nM | 10.3 nM | 
20 | COc1cccn2c(-c3cc4c(c5c3CNC5=O)Nc3ccc(N5CCOCC5)cc3C4(C)C)nnc12 [Example 75] |  | 1.41 nM | 4.55 nM | 

Row | Structure (SMILES) | IC50 (Phospho-SLP-76 (Ser376)) | EC50 (human Pan T cells) | IC50 (HPK1; read-out: HPK1, IC50) | IC50 (HPK1; HPK1, IC50 (nM))
21 | CC1(C)c2cc(C3CCNCC3)ccc2Nc2c1cc(-c1cnn3cccnc13)c1c2C(=O)NC1 [Example 83] |  | 17.4 nM | 5.8 nM | 
22 | CC1(C)c2cc(N3CCOCC3)ccc2Nc2c1cc(-n1cnc3c1CCCC3)c1c2C(=O)NC1 [Example 80] |  | 86.6 nM | 9.18 nM | 
23 | Cc1ccc2c(-c3cc4c(c5c(=O)[nH]ccc35)Nc3ccc(N5CCOC(C(C)(C)O)C5)cc3C4(C)C)cnn2c1 (stereo not shown) [Example 7] | 487 nM |  |  | 
24 | CC1(C)c2cc(N3CCOCC3)ccc2Nc2c1cc(-c1cncc(OCC3COC3)c1)c1c2C(=O)NC1 [Example 74] |  | 100 nM | 49.7 nM | 
25 | CC1(C)c2cc(N3CCOC(C(C)(C)O)C3)ccc2Nc2c1cc(-c1cnc3c(C#N)cccn13)c1c2C(=O)NC1 (stereo not shown) [Example 23] |  | < 1.5 nM | 3.65 nM | 
26 | CC1(C)c2cc(N3CCOCC3)ccc2Nc2c1cc(-c1cnn3c1CNCC3)c1c2C(=O)NC1 [Example 70] |  | 23.4 nM | 12.7 nM | 
27 | COc1cccn2c(-c3cc4c(c5c3CCNC5=O)Nc3ccc(N5CCOCC5)cc3C4(C)C)cnc12 [Example 13] | 24.4 nM |  |  | 
28 | Cc1ccn2c(-c3cc4c(c5c3CNC5=O)Nc3ccc(N5CCOC(C(C)(C)O)C5)cc3C4(C)C)cnc2c1F (single isomer, unassigned) [Example 88] |  | 12.3 nM |  | 11.6 nM
29 | COc1cccn2c(-c3cc4c(c5c3CNC5=O)Nc3ccc(N5CCOCC5)cc3C4(C)C)cnc12 [Example 10] | 42.7 nM |  | 8.39 nM | 
30 | CC1(C)c2cc(N3CCOCC3)cnc2Nc2c1cc(-c1cnn3cccnc13)c1c2C(=O)NC1 [Example 28] |  | 95.9 nM | 21.5 nM | 
31 | CC1(C)c2cc(N3CCOCC3)ccc2Nc2c1cc(-c1cnn3cccnc13)c1cc[nH]c(=O)c21 [Example 4] | 38.1 nM | 4.61 nM |  | 
32 | CC1(C)c2cc(N3CCOCC3)ccc2Nc2c1cc(-c1cnc3c(C#N)cccn13)c1c2C(=O)NC1 [Example 34] |  | 2.41 nM | 11.5 nM | 
33 | COc1cccc2c(-c3cc4c(c5c(=O)[nH]ccc35)Nc3ccc(N5CCOCC5)cc3C4(C)C)cnn12 [Example 8] | 103 nM | 5.5 nM |  | 
34 | COc1cccc2c(-c3cc4c(c5c3CNC5=O)Nc3ncc(N5CCOCC5)cc3C4(C)C)cnn12 [Example 21] | 37 nM | 8.32 nM |  | 
35 | COC1CCCn2c(-c3cc4c(c5c3CNC5=O)Nc3ccc(N5CCOCC5)cc3C4(C)C)cnc21 (single isomer, unassigned) [Example 90] |  | 6.3 nM | 6.72 nM | 
36 | CN1CCN(c2ccc3c(c2)C(C)(C)c2cc(-c4cnn5cccnc45)c4c(c2N3)C(=O)NC4)C(=O)C1 [Example 55] |  | 40.3 nM | 7.55 nM | 
37 | CN1CCn2c(-c3cc4c(c5c3CNC5=O)Nc3ccc(N5CCOCC5)cc3C4(C)C)cnc2C1=O [Example 84] |  | 65.9 nM | 8.63 nM | 
38 | Cc1ccnc2c(-c3cc4c(c5c3CNC5=O)Nc3ccc(N5CCOCC5)cc3C4(C)C)cnn12 [Example 60] |  | 17.9 nM | 14.4 nM | 
39 | Cn1c(-c2cc3c(c4c2CNC4=O)Nc2ccc(N4CCOCC4)cc2C3(C)C)cnc1C1CC1 [Example 68] |  | 21.1 nM | 12 nM | 
